According to article PMC6127852 (Journal of Enzyme Inhibition and Medicinal Chemistry, 2018):
Values after ≈ are worked out from the molar mass of the structure shown.

Tests used:
[1] = tested on: bloodstream form T. brucei (strain 221); experiment: Anti-trypanosomal screening, resazurin; format: cell-based; settings: Trypanosoma brucei, mean of triplicate ± SEM
Procedure, shortened: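 Parasites grown in modified Iscove's medium with compound in triplicate; resazurin added at 48 h and plates read after a further 16 h.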

E. faecalis ATCC 29212 = experiment: Broth microdilution MIC, E. faecalis ATCC 29212; format: cell-based; settings: Enterococcus faecalis, ATCC29212; Table S2
Procedure, shortened: (§1)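 Growth inhibition is assessed in Mueller–Hinton broth supplemented with calcium and magnesium cations, following the CLSI standard microdilution format. The MIC is reported from three replicate tests.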

[2] = tested on: L6 cells (a rat myoblast line); experiment: Cytotoxicity against mammalian cells, resazurin; format: cell-based; settings: L6, 144 h, 6 d incubation
Description: Cytotoxicity against mammalian cells was also assessed using microtitre plates. Briefly, L6 cells (a rat myoblast line) were seeded at 1 × 10^4 ml^−1 in 200 µl of growth medium containing different compound concentrations. The plates were then incubated for 6 d at 37 °C and 20 µl resazurin added to each well. After a further 8 h incubation, the fluorescence was determined using a Spectramax plate reader, as outlined above.

P. aeruginosa ATCC 27853 = experiment: Broth microdilution MIC, P. aeruginosa ATCC 27853; format: cell-based; settings: Pseudomonas aeruginosa, ATCC27853; Table S2
Procedure, shortened: as §1

K. pneumonia ATCC 700803 = experiment: Broth microdilution MIC, K. pneumoniae ATCC 700803; format: cell-based; settings: Klebsiella pneumoniae, ATCC700803; Table S2
Procedure, shortened: as §1

E. coli ATCC 25925 = experiment: Broth microdilution MIC, E. coli ATCC 25925; format: cell-based; settings: Escherichia coli, ATCC25925; Table S2
Procedure, shortened: as §1

S. aureus MSSA = experiment: Broth microdilution MIC, MSSA clinical strain; format: cell-based; settings: Staphylococcus aureus
Procedure, shortened: (§2)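 MICs were set by CLSI broth microdilution in cation (Ca2+, Mg2+)-adjusted Mueller–Hinton broth, in triplicate. Panel: S. aureus ATCC 25923, MRSA, MSSA, E. faecalis, VRE E. faecium, E. coli ATCC 25925, P. aeruginosa ATCC 27853, A. baumannii ATCC 19606 and ESBL K. pneumoniae ATCC 27736.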

E. faecium VRE = experiment: Broth microdilution MIC, VRE clinical strain; format: cell-based; settings: Enterococcus faecium
Procedure, shortened: as §2

polyA-polyU [3] = experiment: Thermal melting (ΔTm) of polyA-polyU; format: binding
Procedure, shortened: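 UV melting monitored at 260 nm in 1 cm cuvettes, ligand absorbance subtracted and normalised; ΔTm = Tm(complex) − Tm(free nucleic acid), mean of at least two runs, error ±0.5 °C. Compound tested at r = 0.1, 0.3, 0.5 and 0.7 eq ([compound]/[polynucleotide]) with ctDNA and polyA-polyU.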

S. aureus MRSA = experiment: Broth microdilution MIC, MRSA clinical strain; format: cell-based; settings: Staphylococcus aureus, antibiotic-resistant clinical strain
Procedure, shortened: as §2

calf thymus ctDNA = experiment: UV–Vis titration with ctDNA (Scatchard); format: binding; settings: UV–Vis titration, PBS, pH 7; footnote e: calculated from experimental data
Procedure, shortened: (§3)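 Polynucleotides titrated into compound at 1.48 × 10^−5 mol dm^−3 in PBS (I = 0.05 mol dm^−3, pH 7.0), with UV–Vis spectra in 1 cm quartz cells; ctDNA sonicated and filtered, concentration as nucleobases. Ks and n from Scatchard analysis, in some cases only from data at r ≥ 0.1.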

[4] = tested on: Gram-positive and Gram-negative bacteria; experiment: Anti-microbial activity overall (all tested bacteria); format: cell-based; settings: summary over tested strains; read-out: MIC, anti-microbial activities overall
Description: The compounds were evaluated for their in vitro anti-bacterial activity against Gram-positive bacteria: S. aureus (ATCC 25923), MRSA, methicillin-sensitive S. aureus (MSSA), E. faecalis, vancomycin-resistant E. faecium (VREF), and Gram-negative bacteria: E. coli (ATCC 25925), P. aeruginosa (ATCC 27853), A. baumannii (ATCC 19606) and ESBL-producing K. pneumoniae (ATCC 27736). Standard broth microdilution method as recommended in guidelines of Clinical and Laboratory Standards Institute[61] ^, [65] ^, [66] was applied and the minimum inhibitory concentration (MIC) of compounds was tested. In short, testing was performed in U-bottomed 96-well sterile plastic microdilution trays (Falcon 3077, Becton Dickinson Labware, Franklin Lakes, NJ) in cation (Ca^2+ and Mg^2+) adjusted Mueller–Hinton broth medium (Becton Dickinson and Co., Cockeysville, MD). All testings were performed in triplicate.

S. aureus ATCC 25923 = experiment: Broth microdilution MIC, S. aureus ATCC 25923; format: cell-based; settings: Staphylococcus aureus, ATCC25923; Table S2
Procedure, shortened: as §1

polyA-polyU [5] = experiment: UV–Vis titration with polyA-polyU (Scatchard); format: binding; settings: for Hypochromic effect H/%, polyA-polyU (from experimental data): footnote e: calculated from experimental data
Procedure, shortened: as §3

A. baumannii ATCC 19606 = experiment: Broth microdilution MIC, A. baumannii ATCC 19606; format: cell-based; settings: Acinetobacter baumannii, ATCC19606; Table S2
Procedure, shortened: as §1

polyC-polyG = experiment: UV–Vis titration with polyC-polyG (Scatchard); format: binding; settings: PBS, pH 7; for log Ks, polyC-polyG: binding constant, Scatchard
Procedure, shortened: as §3

[6] = tested on: polyA-polyU (RNA, polymer) A/U; experiment: UV-Vis titration, Scatchard; settings: PBS, pH 7; changes too small for accurate calculation; compound 14.8 µM
[7] = tested on: polyG-polyC (polyC-polyG) (RNA, polymer) G/C; experiment: UV-Vis titration, Scatchard; settings: PBS, I = 0.05 M (Table 1 says I = 0.015 M), cations not specified, I = 0.015 M (Methods: 0.05 M), pH 7, n fixed, per base

Row | MIC (E. faecalis ATCC 29212) | MIC (P. aeruginosa ATCC 27853) | MIC (K. pneumonia ATCC 700803) | MIC (E. coli ATCC 25925) | MIC (E. faecium VRE) | MIC [4] | MIC (S. aureus ATCC 25923) | MIC (A. baumannii ATCC 19606) | log Ks, polyC-polyG (polyC-polyG) | Structure (SMILES) | IC50 [1] | IC90 [1] | IC50 [2] | MIC (S. aureus MSSA) | melting point | MIC (S. aureus MRSA) | Hypochromic effect H/%, ctDNA (from experimental data) (calf thymus ctDNA) | Hypochromic effect H/%, polyA-polyU (from experimental data) (polyA-polyU [5]) | further results
1 | 128 µg/mL | > 256 µg/mL | > 256 µg/mL | > 256 µg/mL | 256 µg/mL | ≥ 128 µg/mL | > 256 µg/mL | > 256 µg/mL | 6.27 | COc1ccc(-n2cc(COc3ccc(-c4nc5cc(C(=N)N)ccc5[nH]4)cc3)nn2)cc1.Cl.Cl [Compound 7b, 2–(4-((1–(4-Methoxyphenyl)-1H-1,2,3-triazol-4-yl)methoxy)phenyl)-1H-benz[d]imidazole-5-carboximidamide dihydrochloride] | 1.5 ± 0.3 µM | 8.1 ± 0.6 µM | 302 ± 15 µM |  | 195 to 197 °C |  | 22.1 ^e % | 27.9 ^e % | Hypochromic effect H/%, polyC-polyG (polyC-polyG; UV–Vis titration, calculated by Scatchard equation): 13.7%
2 | 128 µg/mL (≈ 294 µM) | > 256 µg/mL | > 256 µg/mL | 256 µg/mL (≈ 588 µM) | 128 µg/mL (≈ 294 µM) | ≥ 128 µg/mL | 128 µg/mL (≈ 294 µM) | > 256 µg/mL | 6.21 | c1ccc(-n2cc(COc3ccc(-c4nc5cc(C6=NCCN6)ccc5[nH]4)cc3)nn2)cc1 [Compound 9a] | 7.9 ± 0.4 µM | 17.2 ± 1.2 µM |  | 128 µg/mL (≈ 294 µM) |  | 128 µg/mL (≈ 294 µM) | 25.7 ^e % | 32.7 ^e % | binding [6]: weak; log Ks [7]: 6.21

Row | Structure (SMILES) | MIC (E. faecalis ATCC 29212) | MIC (P. aeruginosa ATCC 27853) | MIC (K. pneumonia ATCC 700803) | MIC (E. coli ATCC 25925) | MIC (E. faecium VRE) | MIC [4] | MIC (S. aureus ATCC 25923) | MIC (A. baumannii ATCC 19606) | log Ks, polyC-polyG (polyC-polyG) | IC50 [1] | IC90 [1] | IC50 [2] | MIC (S. aureus MSSA) | melting point | MIC (S. aureus MRSA) | Hypochromic effect H/%, ctDNA (from experimental data) (calf thymus ctDNA) | Hypochromic effect H/%, polyA-polyU (from experimental data) (polyA-polyU [5]) | further results
3 | COc1ccc(-n2cc(COc3ccc(-c4nc5cc(C6=NCCN6)ccc5[nH]4)cc3)nn2)cc1.Cl.Cl [Compound 9b, 5–(4,5-Dihydro-1H-imidazol-2-yl)-2–(4-((1–(4-methoxyphenyl)-1H-1,2,3-triazol-4-yl)methoxy)phenyl)-1H-benz[d]imidazole dihydrochloride] | 256 µg/mL | > 256 µg/mL | > 256 µg/mL | 256 µg/mL | 256 µg/mL | ≥ 128 µg/mL | 128 µg/mL | > 256 µg/mL |  | 1.6 ± 0.4 µM | 7.3 ± 0.3 µM | 263 ± 15 µM | 256 µg/mL | 197 to 199 °C | 256 µg/mL | 18.9 ^e % | 31.6 ^e % | ΔTm, polyA-polyU, r = 0.1 (polyA-polyU [3]; r = 0.1, PBS, pH 7): 2.49 °C; ΔTm, polyA-polyU, r = 0.3 (polyA-polyU [3]; r = 0.3, first melting midpoint): 2.67 °C; ΔTm, polyA-polyU, r = 0.3, second melting midpoint (polyA-polyU [3]; r = 0.3, footnote c: biphasic melting curve): 36.08^c °C; ΔTm, polyA-polyU, r = 0.5 (polyA-polyU [3]; r = 0.5, first melting midpoint): 2.92 °C; ΔTm, polyA-polyU, r = 0.5, second melting midpoint (polyA-polyU [3]; r = 0.5, footnote c: biphasic melting curve): 40.93^c °C; log Ks, polyA-polyU (polyA-polyU [5]; binding constant, Scatchard, PBS, pH 7): 5.46
